{"source": "patent US20190054019A1", "about": "“METHODS FOR USING REGULATORS FOR INCREASING THE EXPRESSION OR ACTIVATION OF P53 AND/OR REGULATORS FOR REDUCING OR INHIBITING THE EXPRESSION OF P63-ALPHA, FOR THE TREATMENT OF NON-ALCOHOLIC FATTY LIVER DISEASE (NAFLD) AND/OR NON-ALCOHOLIC STEATOHEPATITIS (NASH)” (Universidade de Santiago de Compostela, priority 2015, published 2019)", "key": {"HepG2 cells": {"tested_on": "HepG2 cells", "assay": "Response of HepG2 cells (control or p53 negative dominant) to etoposide", "type": "cell-based, human", "text": "FIG. 9. Effect of p53 silencing in HepG2 cells. (A) Efficiency of the down-regulation of p53 in HepG2 cells transfected with adenoviruses expressing GFP alone or adenoviruses encoding a p53 negative dominant. (B) Oil red staining in HepG2 cells treated with etoposide at different concentrations. (C) Representative western blot of protein levels of peIF2α and Xbp1 in HepG2 cells non-treated and treated with etoposide. *p<0.05, n=4 per group.\nHepG2 cells were infected with adenoviruses expressing GFP alone or adenoviruses encoding a p53 negative dominant and treated with etoposide.\nHepG2 cells were infected with adenoviruses expressing GFP alone or adenoviruses encoding a p53 negative dominant. Infection efficiency was assessed by decreased expression of phosphor-p53 (pp53) (FIG. 9A). In order to investigate the response of control cells and cells with silenced p53, we challenged them to etoposide, a well established compound that induces stress."}, "HepG2": {"tested_on": "HepG2", "assay": "Accumulation of lipids induced by oleic acid in human hepatocytes (HepG2)", "type": "cell-based", "settings": "48 h", "procedure": "The hepatocyte cell line of human origin HepG2 was treated with bovine serum albumin (BSA, which represents the control group), oleic acid (OA) and 50 nM oleic acid+doxorubicin for 48 h."}, "[1]": {"assay": "Doxorubicin intraperitoneal for 5 days in Swiss mice on standard diet: body weight", "type": "in vivo, mice of the Swiss strain"}, "[2]": {"tested_on": "mice of the C57/B6 strain fed with a HFD", "assay": "Doxorubicin in C57/B6 mice fed HFD (60% fat)", "type": "in vivo", "settings": "0.6 mg/kg i.p. twice per week, two months", "procedure": "Subsequently, mice were administered a dose of 0.6 mg/kg intra-peritoneally twice per week during a further period of two months."}, "[3]": {"settings": "HepG2 cells treated with etoposide"}, "[4]": {"settings": "0.6 mg/kg i.p. twice per week, 2 months"}, "[5]": {"settings": "0.6 mg/kg, two months, vs control vehicle"}}, "data": [{"smiles": "COc1cc([C@@H]2c3cc4c(cc3[C@@H](O[C@@H]3O[C@@H]5CO[C@@H](C)O[C@H]5[C@H](O)[C@H]3O)[C@H]3COC(=O)[C@H]23)OCO4)cc(OC)c1O", "note": "[etoposide]", "values": [{"measurement": "ER stress markers peIF2α and XBP1 in cells with silenced p53 vs control cells", "setting": "HepG2 cells; [3]", "value": "higher levels"}, {"measurement": "amount of lipid droplets in p53 dominant negative-infected cells vs control cells", "setting": "HepG2 cells; [3]", "value": "increased amount of lipid droplets"}, {"measurement": "lipid deposition (oil red staining)", "setting": "HepG2 cells; HepG2 cells, dose-dependent", "value": "increased lipid deposition"}]}, {"smiles": "CCCCCCCC/C=C\\CCCCCCCC(=O)O", "note": "[oleic acid]", "values": [{"measurement": "amount of lipids in the cells vs BSA control", "setting": "HepG2; oleic acid", "value": "significantly increases the amount of lipids"}]}, {"smiles": "COc1cccc2c1C(=O)c1c(O)c3c(c(O)c1C2=O)C[C@@](O)(C(=O)CO)C[C@@H]3O[C@H]1C[C@H](N)[C@H](O)[C@H](C)O1", "note": "[doxorubicin]", "values": [{"measurement": "body weight change", "setting": "[1]; 0.3, 0.6, 1.25, 2.5 and 5 mg/kg intraperitoneal, 1 injection/day, dose dependent", "value": "significant loss of weight"}, {"measurement": "dosages capable of reducing the body weight significantly", "setting": "[1]; intraperitoneal", "value": "≥ 0.6", "unit": "mg/kg"}, {"measurement": "body weight", "setting": "[2]", "value": "reduced their body weight significantly"}, {"measurement": "hepatic tryglicerides", "setting": "[2]", "value": "significantly reduced"}, {"measurement": "amount of lipids in the cells vs cells treated with oleic acid", "setting": "HepG2; 50 nM oleic acid+doxorubicin", "value": "significant decrease in the amount of lipids"}, {"measurement": "body composition: muscle mass", "setting": "HFD-induced obese mice; [4]", "value": "without altering the muscle mass"}, {"measurement": "body composition: quantity of fat", "setting": "HFD-induced obese mice; [4]", "value": "reduce quantity of fat"}, {"measurement": "levels of troponine (marker of cardiovascular damage)", "setting": "HFD-induced obese mice; 0.6 mg/kg i.p., serum", "value": "fails to significantly increase"}, {"measurement": "hepatic damage (histological study)", "setting": "HFD-induced obese mice; 0.6 mg/kg, two months", "value": "reduced hepatic damage"}, {"measurement": "liver expression of inflammatory markers TNF-α, arginase, IL-6, NOS2 and F480", "setting": "HFD-induced obese mice; 0.6 mg/kg, two months, mRNA", "value": "reduces the expression"}, {"measurement": "level of non-esterified fatty acids in the liver", "setting": "HFD-induced obese mice; [5]", "value": "increased"}, {"measurement": "level of triglycerides in the liver", "setting": "HFD-induced obese mice; [5]", "value": "reduced"}, {"measurement": "liver protein levels of ER stress genes pIRE, XBP1, CHOP, pJNK", "setting": "HFD-induced obese mice; 0.6 mg/kg, two months, western blot", "value": "reduced the protein levels"}, {"measurement": "body weight", "setting": "HFD-induced obese mice; all studied dosages (0.15, 0.3, 0.6, 1.25 mg/kg) i.p. twice per week, 2 months", "value": "significant loss of body weight"}]}]}
